Values of other authors in patent US20260225982A1, “NEW METHOD FOR OZONOLYSIS AND REDUCTIVE QUENCHING OF OZONIDES” (P2 SCIENCE, INC., priority 2023, published 2026).

Assays:
[1] = species and route not given; given in comparison with oral rat LD50 of glyoxal

O=CC=O [Glyoxal]
oral rat LD50 (rat; oral): 3300 mg/kg

O=CC(=O)O [Glyoxylic acid]
rat LD50 (rat; in vivo): 2500 mg/kg

[Cl-].[Na+] [table salt]
LD50 [1]: 3000 mg/kg
